The values below come from patent publication US9174995B2, “Pyrrolotriazinone derivatives” (Merck Patent GmbH, priority 2012, dated 2015).

Some results are limits rather than exact numbers.

For test [1], the target named is T1, GST-tagged Tankyrase-2 (873-1166 aa) (Homo sapiens, UniProt Q9H2K2).
T1 construct: GST-tagged Tankyrase-2 (873-1166 aa)
Nature of the test: Tankyrase 2 autoparsylation assay (HTRF enzyme assay). It is filed as biochemical. As to the method: (§1) Biochemical Activity Testing of Tankyrase 1 and 2: Autoparsylation Assay
(§2) The autoparsylation assay is run in two steps: the enzymatic reaction in which GST-tagged Tankyrase-1, resp Tankyrase-2 transferred biotinylated ADP-ribose to itself from biotinylated NAD as co-substrate and the detection reaction where a time resolved FRET between cryptate labelled anti-GST bound to the GST tag of the enzyme and Xlent® labelled-streptavidin bound the biotin-parsylation residue is analysed. The autoparsylation activity was detectable directly via the increase in HTRF signal.
(§3) The autoparsylation assay is performed as 384-well HTRF® (Cisbio, Codolet, France) assay format in Greiner low volume nb 384-well microtiter plates and is used for high throughput screen. 250 nM GST-tagged Tankyrase-1 (1023-1327 aa), respectively about 250 nM GST-tagged Tankyrase-2 (873-1166 aa) and 5 μM bio-NAD (Biolog, Life science Inst., Bremen, Germany) as co-substrate are incubated in a total volume of 5 μl (50 mM HEPES, 4 mM Mg-chloride, 0.05% Pluronic F-68, 1.4 mM DTT, 0.5% DMSO, pH 7.7) in the absence or presence of the test compound (10 dilution concentrations) for 90 min at 30° C. The reaction is stopped by the addition of 1 μl 50 mM EDTA solution. 2 μl of the detection solution (1.6 μM SA-Xlent® (Cisbio, Codolet, France), 7.4 nM Anti-GST-K® (Eu-labelled anti-GST, Cisbio, Codolet, France) in 50 mM HEPES, 800 mM KF, 0.1% BSA, 20 mM EDTA, 0.1% CHAPS, pH 7.0) are added. After 1 h incubation at room temperature the HTRF is measured with an Envision multimode reader (Perkin Elmer LAS Germany GmbH) at excitation wavelength 340 nm (laser mode) and emission wavelengths 615 nm and 665 nm. The ratio of the emission signals is determined. The full value used is the inhibitor-free reaction. The pharmacological zero value used is XAV-939 (Tocris) in a final concentration of 5 μM. The inhibitory values (IC50) are determined using either the program Symyx Assay Explorer® or Condosseo® from GeneData.
In general terms: TR-FRET usually uses a lanthanide donor and a delayed reading to cut background.

Test [2] concerns the target T2, GST-tagged Tankyrase-1 (1023-1327 aa) (Homo sapiens, UniProt O95271).
T2 construct: GST-tagged Tankyrase-1 (1023-1327 aa)
Nature of the test: Tankyrase 1 autoparsylation assay (HTRF enzyme assay). Type of test: biochemical. The procedure:
as §1, §2, §3

In a further test the test system is DLD-1-cancer cells. Conditions: cited from earlier work.
In another test the test system is Tankyrases. Nature of the test: Cellular inhibition of Tankyrase: increase of Axin2 level in DLD1 cells (Luminex). Conditions: 24 hours, read-out: EC50 tankyrase ½ (cell assay). It is filed as cell-based. As to the method: Measurement of Cellular Inhibition of Tankyrase
Since Tankyrases have been described to modulate cellular level of Axin2 (Huang et al., 2009; Nature) the increase of Axin2 level is used as readout for determination of cellular inhibition of Tankyrases in a Luminex based assay.
Cells of the colon carcinoma cell line DLD1 are plated in 96 well plates with 1.5×10^4 cells per well. Next day, cells are treated with a serial dilution of test compound in seven steps as triplicates with a final DMSO concentration of 0.3%. After 24 hours, cells are lysed in lysis buffer (20 mM Tris/HCl pH 8.0, 150 mM NaCl, 1% NP40, 10% Glycerol) and lysates are cleared by centrifugation through a 96 well filter plate (0.65 μm). Axin2 protein is isolated from cell lysates by incubation with a monoclonal anti-Axin2 antibody (R&D Systems #MAB6078) that is bound to fluorescent carboxybeads. Then, bound Axin2 is specifically detected with a polyclonal anti-Axin2 antibody (Cell Signaling #2151) and an appropriate PE-fluorescent secondary antibody. The amount of isolated Axin2 protein is determined in a Luminex^200 machine (Luminex Corporation) according to the manufacturer's instruction by counting 100 events per well. Inhibition of Tankyrase by test compounds results in higher levels of Axin2 which directly correlates with an increase of detectable fluorescence. As controls cells are treated with solvent alone (neutral control) and with a Tankyrase reference inhibitor IWR-2 (3E-06 M) which refers as control for maximum increase of Axin2. For analysis, the obtained data are normalized against the untreated solvent control and fitted for determination of the EC50 values using the Assay Explorer software (Accelrys).

For test [3], the target named is T3, GST-tagged Tnks-2 (873-1166 aa) (Homo sapiens, UniProt Q9H2K2).
T3 construct: GST-tagged Tnks-2 (873-1166 aa, prepared in-house); made in house
Nature of the test: TNKS2 activity ELISA (autoparsylation assay). Type of test: biochemical. The procedure:
(§4) Description of the TNKS1 and TNKS2 ELISA Assay
(§5) Biochemical Activity Testing of TNKS 1 and 2: Activity ELISA (Autoparsylation Assay)
(§6) For analysis of autoparsylation activity of TNKS 1 and 2 an activity ELISA is performed: In the first step GST tagged TNKS is captured on a Glutathione coated plate. Then the activity assay with biotinylated NAD is performed in the absence/presence of the compounds. During the enzymatic reaction GST tagged TNKS transfers biotinylated ADP-ribose to itself from biotinylated NAD as co-substrate. For the detection streptavidin-HRP conjugate is added that binds to the biotinylated TNKS and is thereby captured to the plates. The amount of biotinylated resp. autoparsylated TNKS is detected with a luminescence substrate for HRP. The level of the luminescence signal correlats directly with the amount of autoparsylated TNKS and therefore with activity of TNKS.
(§7) The activity ELISA is performed in 384 well Glutathione coated microtiter plates (Express capture Glutathione coated plate, Biocat, Heidelberg, Germany). The plates are pre-equilibrated with PBS. Then the plates are incubated with 50 μl 20 ng/well GST-tagged Tnks-1 (1023-1327 aa, prepared in-house), respectively GST-tagged Tnks-2 (873-1166 aa, prepared in-house) in assay buffer (50 mM HEPES, 4 mM Mg-chloride, 0.05% Pluronic F-68, 2 mM DTT, pH 7.7) overnight at 4° C. The plates are washed 3 times with PBS-Tween-20. The wells are blocked by incubation at room temperature for 20 minutes with 50 μl blocking buffer (PBS, 0.05% Tween-20, 0.5% BSA). Afterwards the plates are washed 3 times with PBS-Tween-20. The enzymatic reaction is performed in 50 μl reaction solution (50 mM HEPES, 4 mM Mg-chloride, 0.05% Pluronic F-68, 1.4 mM DTT, 0.5% DMSO, pH 7.7) with 10 μM bio-NAD (Biolog, Life science Inst., Bremen, Germany) as co-substrate in the absence or presence of the test compound (10 dilution concentrations) for 1 hour at 30° C. The reaction is stopped by 3 times washing with PBS-Tween-20. For the detection 50 μl of 20 ng/μl Streptavidin, HRP conjugate (MoBiTec, Göttingen, Germany) in PBS/0.05%Tween-20/0.01%BSA are added and the plates are incubated for 30 minutes at room temperature. After three times washing with PBS-Tween-20 50 μl of SuperSignal ELISA Femto Maximum sensitivity substrate solution (ThermoFisherScientific (Pierce), Bonn, Germany) are added. Following a 1 minute incubation at room temperature luminescence signals are measured with an Envision multimode reader (Perkin Elmer LAS Germany GmbH) at 700 nm. The full value used is the inhibitor-free reaction. The pharmacological zero value used is XAV-939 (Tocris) in a final concentration of 5 μM. The inhibitory values (IC50) are determined using either the program Symyx Assay Explorer® or Condosseo® from GeneData.
Background: ELISA stands for enzyme-linked immunosorbent assay.

Test [4] concerns the target T4, GST-tagged Tnks-1 (1023-1327 aa) (Homo sapiens, UniProt O95271).
T4 construct: GST-tagged Tnks-1 (1023-1327 aa, prepared in-house); made in house
Kind of test: TNKS1 activity ELISA (autoparsylation assay). It is filed as biochemical. The procedure:
as §4, §5, §6, §7

T1 sequence (Q9H2K2 873-1166): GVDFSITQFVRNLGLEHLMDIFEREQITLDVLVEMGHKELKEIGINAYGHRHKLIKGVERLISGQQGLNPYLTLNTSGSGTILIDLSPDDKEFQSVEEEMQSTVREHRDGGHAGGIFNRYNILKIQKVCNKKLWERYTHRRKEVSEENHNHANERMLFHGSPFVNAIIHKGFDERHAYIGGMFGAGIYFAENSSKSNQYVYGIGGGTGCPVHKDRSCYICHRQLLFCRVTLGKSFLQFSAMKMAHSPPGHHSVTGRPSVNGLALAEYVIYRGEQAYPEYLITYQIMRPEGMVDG
T2 sequence (O95271 1023-1327): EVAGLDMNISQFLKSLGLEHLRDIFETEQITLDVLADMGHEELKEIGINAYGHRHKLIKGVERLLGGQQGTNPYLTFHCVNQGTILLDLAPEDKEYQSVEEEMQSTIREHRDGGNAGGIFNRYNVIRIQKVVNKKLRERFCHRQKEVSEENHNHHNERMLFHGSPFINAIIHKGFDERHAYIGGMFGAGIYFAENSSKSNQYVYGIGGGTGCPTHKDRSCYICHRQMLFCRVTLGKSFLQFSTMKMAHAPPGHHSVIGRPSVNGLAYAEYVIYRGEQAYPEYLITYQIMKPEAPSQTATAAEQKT
T3 sequence (Q9H2K2 873-1166): as the sequence (Q9H2K2 873-1166) above
T4 sequence (O95271 1023-1327): as the sequence (O95271 1023-1327) above

For `CC(C)(O)c1ccc(-c2nn3c(C(F)(F)F)ccc3c(=O)[nH]2)cc1` [Compound A20, 2-[4-(1-hydroxy-1-methyl-ethyl)-phenyl]-7-trifluoromethyl-3H-pyrrolo[2,1-f][1,2,4]triazin-4-one], the figures for the IC50 in test [1] and in test [2] were 3000 to 50000 nM and 300 to 3000 nM, respectively.

Regarding `Oc1nc(-c2ccc(C(F)(F)F)cc2)nc2c1CSCC2` [XAV939], in the test with DLD-1-cancer cells, the “growth of DLD-1-cancer cells” value is reported as “inhibits growth”.

For `CC(C)(C)c1ccc(-c2nn3cccc3c(=O)[nH]2)cc1` [Compound A3, 2-(4-tert-butyl-phenyl)-3H-pyrrolo[2,1-f][1,2,4]triazin-4-one], the EC50 with Tankyrases is 300 to 3000 nM. Moreover, the IC50 in test [1] is 300 to 3000 nM; in test [2], below 300 nM.

Turning to `COC(=O)c1ccc(-c2nn3cccc3c(=O)[nH]2)cc1` [Compound A2, 4-(4-oxo-3,4-dihydro-pyrrolo[2,1-f][1,2,4]triazin-2-yl)-benzoic acid methyl ester], in the test on Tankyrases, the EC50 was in the range of 300 to 3000 nM. The IC50 in test [1] and in test [2] was below 300 nM in each case.

In the case of `O=c1[nH]c(-c2ccc(Br)cc2)nn2cccc12` [Compound A6, 2-(4-bromo-phenyl)-3H-pyrrolo[2,1-f][1,2,4]triazin-4-one], the IC50 in test [1] and in test [2] was below 300 nM each time.

As for `CC(C)(N)c1ccc(-c2nn3cccc3c(=O)[nH]2)cc1` [Compound A16, 2-[4-(1-amino-1-methyl-ethyl)-phenyl]-3H-pyrrolo[2,1-f][1,2,4]-triazin-4-one], the IC50 in test [1] and in test [2] was 300 to 3000 nM throughout.

Turning to `Cc1ccc2c(=O)[nH]c(-c3ccc(C(C)(C)O)cc3)nn12` [Compound A19, 2-[4-(1-hydroxy-1-methyl-ethyl)-phenyl]-7-methyl-3H-pyrrolo[2,1-f][1,2,4]triazin-4-one], the EC50 with Tankyrases was below 300 nM. The IC50 in test [1] and in test [2] was below 300 nM throughout.

In the case of `Cc1ccc(-c2nn3cccc3c(=O)[nH]2)cc1` [Compound A1, 2-p-tolyl-3H-pyrrolo[2,1-f][1,2,4]triazin-4-one], the IC50 in test [1], in test [3], in test [2] and in test [4] was below 300 nM each time.

Take `Cc1cc2c(=O)[nH]c(-c3ccc(C(C)(C)O)cc3)nn2n1` [Compound A17, 6-[4-(1-hydroxy-1-methyl-ethyl)-phenyl]-2-methyl-5H-1,5,7,7a-tetraaza-inden-4-one]: in the test with Tankyrases, the EC50 fell in the range of 3000 to 50000 nM. Besides, the IC50 in test [1], in test [3], in test [2] and in test [4] was 300 to 3000 nM in each case.

What is called IC50 is the midpoint of a concentration-inhibition curve. A low value points to higher potency. In general, EC50 refers to the midpoint of the concentration-response curve.
